20 compounds from patent US12350270B2, “Antimalarial agents” (Merck Sharp & Dohme LLC, priority 2019, dated 2025) can be followed below.

pEC50: −log10 of the molar value.

For this assay, the system named is parasites (ring stage, in human red blood cell culture). Briefly: Parasite LDH growth assay (antiparasite potency, Parasite Assay). Type of assay: cell-based, Plasmodium falciparum. The conditions noted are these: Plasmodium falciparum, Erythrocyte, 72 h, 0.7% rings, 2% haematocrit, 72 hours at 37° C., LDH readout of parasite growth. In outline: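 Growth was read by an LDH assay after a freeze–thaw cycle (−80 °C overnight, 4 h thaw at RT). Before that, parasites grew with compound for 72 h at 37 °C under gassed, humidified conditions. The input was a ring-stage culture adjusted to 0.7% parasitemia and 2% haematocrit in serum (5%)/albumax (0.5%)-supplemented RPMI-Hepes.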
With `CC1(C)CC(=O)N(C2c3cc(C(=O)N[C@@H]4c5ccccc5C[C@]4(C)O)ccc3OC2(C)C)C(=N)N1` (stereo partly drawn) [Example 108, N-[(1R,2S)-2-hydroxy-2-methyl-indan-1-yl]-3-(2-imino-4,4-dimethyl-6-oxo-hexahydropyrimidin-1-yl)-2,2-dimethyl-3H-benzofuran-5-carboxamide], the pEC50 was 7.13.

As to `CO[C@@H]1COc2ccccc2[C@H]1NC(=O)c1ccc2c(c1)[C@H](N1C(=N)NC(C)(C)CC1=O)CCO2` [Example 109, (4R)-4-(2-imino-4,4-dimethyl-6-oxo-hexahydropyrimidin-1-yl)-N-[(3S,4R)-3-methoxychroman-4-yl]chromane-6-carboxamide], the pEC50 was 7.85.

In turn, `COC1COc2ccc(C(=O)N[C@@H]3c4ccccc4C[C@H]3O)cc2C1N1C(=N)NC(C)(C)CC1=O` (stereo partly drawn) [Example 110, N-[(1R,2R)-2-hydroxyindan-1-yl]-4-(2-imino-4,4-dimethyl-6-oxo-hexahydropyrimidin-1-yl)-3-methoxy-chromane-6-carboxamide] gave a negative logarithm of the EC50 (pEC50) of 7.22.

As to `CCC1(CC)CC(=O)N([C@@H]2CCOc3ccc(C(=O)N[C@@H](C)c4ccccc4OC)cc32)C(=N)N1` [Example 111, (4R)-4-(4,4-diethyl-2-imino-6-oxo-hexahydropyrimidin-1-yl)-N-[(1S)-1-(2-methoxyphenyl)ethyl]chromane-6-carboxamide], the pEC50 was 7.05.

Consider `CC1(C)CC(=O)N([C@@H]2CCOc3ccc(C(=O)N[C@@H]4c5cc(F)ccc5OC[C@H]4O)cc32)C(=N)N1` [Example 112, (4R)-N-[(3S,4R)-6-fluoro-3-hydroxy-chroman-4-yl]-4-(2-imino-4,4-dimethyl-6-oxo-hexahydropyrimidin-1-yl)chromane-6-carboxamide], for which the negative logarithm of the EC50 (pEC50) was 7.94.

`CC1(C)CC(=O)N([C@@H]2CC(C)(C)c3ccc(C(=O)N[C@H]4CC(C)(C)Oc5ccccc54)cc32)C(=N)N1` [Example 113, (3R)-N-[(4S)-2,2-dimethylchroman-4-yl]-3-(2-imino-4,4-dimethyl-6-oxo-hexahydropyrimidin-1-yl)-1,1-dimethyl-indane-5-carboxamide] showed a negative-log EC50 (pEC50) of 7.79.

For `CCC1(CC)CC(=O)N([C@@H]2CCCc3ccc(C(=O)N[C@@H]4c5ccccc5C[C@@]4(C)O)cc32)C(=N)N1` [Example 114, (4R)-4-(4,4-diethyl-2-imino-6-oxo-hexahydropyrimidin-1-yl)-N-[(1R,2R)-2-hydroxy-2-methyl-indan-1-yl]tetralin-6-carboxamide], the pEC50 is 8.74.

Compound `CCC1(CC)CC(=O)N([C@@H]2C[C@@H](OC)c3ccc(C(=O)N[C@@H]4c5ccccc5C[C@H]4O)cc32)C(=N)N1` [Example 115, (1R,3R)-3-(4,4-diethyl-2-imino-6-oxo-hexahydropyrimidin-1-yl)-N-[(1R,2R)-2-hydroxyindan-1-yl]-1-methoxy-indane-5-carboxamide] gave a pEC50 of 8.44.

`CCC1(CC)CC(=O)N([C@H]2C[C@@H](OC)c3ccc(C(=O)N[C@@H]4c5ccccc5C[C@H]4O)cc32)C(=N)N1` [Example 116, (1R,3S)-3-(4,4-diethyl-2-imino-6-oxo-hexahydropyrimidin-1-yl)-N-[(1R,2R)-2-hydroxyindan-1-yl]-1-methoxy-indane-5-carboxamide] had a pEC50 of 6.68.

In turn, `CCC1(CC)CC(=O)N([C@@H]2C[C@H](OC)c3ccc(C(=O)N[C@@H]4c5ccccc5C[C@H]4O)cc32)C(=N)N1` [Example 117, (1S,3R)-3-(4,4-diethyl-2-imino-6-oxo-hexahydropyrimidin-1-yl)-N-[(1R,2R)-2-hydroxyindan-1-yl]-1-methoxy-indane-5-carboxamide] had a pEC50 of 8.60.

Take `CCC1(CC)CC(=O)N([C@H]2c3cc(C(=O)N[C@@H]4c5ccccc5C[C@H]4O)ccc3OC[C@H]2C)C(=N)N1` [Example 118, (3S,4R)-4-(4,4-diethyl-2-imino-6-oxo-hexahydropyrimidin-1-yl)-N-[(1R,2R)-2-hydroxyindan-1-yl]-3-methyl-chromane-6-carboxamide]: the pEC50 was 9.05.

In turn, `CCC1(CC)CC(=O)N([C@@H]2CCOc3ccc(C(=O)NC4CCCOc5ccccc54)cc32)C(=N)N1` (stereo partly drawn) [Example 119, (4R)-4-(4,4-diethyl-2-imino-6-oxo-hexahydropyrimidin-1-yl)-N-(2,3,4,5-tetrahydro-1-benzoxepin-5-yl)chromane-6-carboxamide] gave a negative logarithm of the EC50 (pEC50) of 8.55.

`CCC1(CC)CC(=O)N([C@H]2c3cc(C(=O)N[C@@H]4c5ccccc5C[C@H]4O)ccc3OC[C@@H]2C)C(=N)N1` [Example 120, (3R,4R)-4-(4,4-diethyl-2-imino-6-oxo-hexahydropyrimidin-1-yl)-N-[(1R,2R)-2-hydroxyindan-1-yl]-3-methyl-chromane-6-carboxamide] gave a negative-log EC50 (pEC50) of 9.10.

`CC[C@]1(C)CC(=O)N([C@@H]2CCc3ccc(C(=O)N[C@@H]4c5ccccc5OC(C)(C)[C@H]4O)cc32)C(=N)N1` [Example 121, (3R)-3-[(4R)-4-ethyl-2-imino-4-methyl-6-oxo-hexahydropyrimidin-1-yl]-N-[(3S,4R)-3-hydroxy-2,2-dimethyl-chroman-4-yl]indane-5-carboxamide] had a pEC50 of 9.22.

The compound `CCC1(CC)CC(=O)N([C@@H]2CCc3ccc(C(=O)N[C@@H]4c5ccccc5OC[C@]4(C)O)cc32)C(=N)N1` [Example 122, (3R)-3-(4,4-diethyl-2-imino-6-oxo-hexahydropyrimidin-1-yl)-N-[(3R,4R)-3-hydroxy-3-methyl-chroman-4-yl]indane-5-carboxamide] gave a pEC50 of 8.41.

`CCC1(CC)CC(=O)N([C@@H]2CCc3ccc(C(=O)N[C@@H]4c5ccccc5OC[C@@]4(C)O)cc32)C(=N)N1` [Example 123, (3R)-3-(4,4-diethyl-2-imino-6-oxo-hexahydropyrimidin-1-yl)-N-[(3S,4R)-3-hydroxy-3-methyl-chroman-4-yl]indane-5-carboxamide] gave a negative logarithm of the EC50 (pEC50) of 8.55.

The compound `CC1(C)CC(=O)N([C@@H]2CC(C)(C)c3ccc(C(=O)N[C@@H]4c5ccccc5OC[C@@]4(C)O)cc32)C(=N)N1` [Example 124, (3R)-N-[(3S,4R)-3-hydroxy-3-methyl-chroman-4-yl]-3-(2-imino-4,4-dimethyl-6-oxo-hexahydropyrimidin-1-yl)-1,1-dimethyl-indane-5-carboxamide] had a pEC50 of 7.24.

`CCC1(CC)CC(=O)N([C@@H]2CCCc3ccc(C(=O)N[C@@H]4c5ccccc5OC[C@H]4O)cc32)C(=N)N1` [Example 125, (4R)-4-(4,4-diethyl-2-imino-6-oxo-hexahydropyrimidin-1-yl)-N-[(3S,4R)-3-hydroxychroman-4-yl]tetralin-6-carboxamide] showed a pEC50 of 8.68.

`CC[C@]1(C)CC(=O)N([C@H]2c3cc(C(=O)N[C@@H]4c5ccccc5C[C@H]4O)ccc3OCC2(C)C)C(=N)N1` [Example 126, (4R)-4-[(4R)-4-ethyl-2-imino-4-methyl-6-oxo-hexahydropyrimidin-1-yl]-N-[(1R,2R)-2-hydroxyindan-1-yl]-3,3-dimethyl-chromane-6-carboxamide] showed a pEC50 of 7.84.

For `CCC1(CC)CC(=O)N(C2c3cc(C(=O)N[C@@H]4c5ccccc5C[C@H]4O)ccc3OC2(C)C)C(=N)N1` (stereo partly drawn) [Example 127A, 3-(4,4-diethyl-2-imino-6-oxo-hexahydropyrimidin-1-yl)-N-[(1R,2R)-2-hydroxyindan-1-yl]-2,2-dimethyl-3H-benzofuran-5-carboxamide], the pEC50 was 6.69.

For orientation: pEC50 means the EC50 on a negative log10 scale, so that one unit is a factor of ten. A high value points to a small EC50.
